Reference: paper PMC6326523, “A high-throughput screen to identify novel small molecule inhibitors of the Werner Syndrome Helicase-Nuclease (WRN)” (PLoS ONE, 2019)

Legend:
[1] = biological target: T1, GST-WRN500-946 helicase domain fragment (Homo sapiens, UniProt Q14191); assay: High-throughput fluorometric helicase screen, PubChem AID 651768; type: biochemical; settings: initial qHTS; 20 nM GST-WRN500-946; 100 nM FORKF; NA = Not Active; read-out: IC50 (μM) Assay ID 651768
T1 construct: made in house; host or cells: insect cells
Experimental: (§1) The structures of the members of this collection are available in the PubChem portal https://pubchem.ncbi.nlm.nih.gov/. For both the 350,000 small molecule collection and the LOPAC^1280 screens, 3 μL of GST-WRN500-946 or reaction buffer only were dispensed using a solenoid-valve nanoliter dispenser into a black 1536-well plate (Greiner). Twenty three nL of each serially diluted compound (0.08–50 μM for the LOPAC screen and 0.003–114 μM for the larger library screen) or control were added to each well using a Kalypsys pintool equipped with a 1536-pin array. Plates were incubated at room temperature for 15 min, followed by initiation of the reactions via the addition of 1 μL of substrate (100 nM FORKF and 2 mM ATP final concentrations). Plates were transferred to a ViewLux high-throughput CCD imager and fluorescence was measured in kinetic mode using an excitation filter of 525 nm and emission filter of 598 nm.
(§2) Zʹ factor, a measure for assay quality control was calculated using the formula Z′ = 1−(3σS^++3σS^−)∕|μS^+−μS^−| as described previously. In this formula, 3σS^+ represents 3 standard deviations from the mean of positive signals while 3σS^− represents 3 standard deviations from the mean of negative signals. μS^+ and μS^− represent the mean of positive signals and negative signals respectively. Percent activity was derived using in-house software (http://tripod.nih.gov/curvefit/). Dose-response curves were classified as described previously.
(§3) A collection of approximately 350,000 compounds is available for screening which has been assembled from multiple sources to provide diverse chemical scaffolds with known purity, identity and solubility. To perform the high-throughput screen of these compounds, we needed to produce approximately 50 milligrams of recombinant WRN helicase fragment. To accomplish this, we cloned the helicase domain fragment into several plasmids for either insect cell or bacterial expression to optimize expression and yield. We selected expression plasmids for insect cell expression with either a GST or MBP tag (image A in S1 Fig) and purified the protein (image B in S1 Fig). The GST-WRN500-946 fragment isolated from insect cells was used in the high throughput screen with the conditions described in Fig 2C (20 nM GST-WRN500-946, 100 nM FORKF DNA substrate) and a summary of the results can be found on PubChem (National Center for Biotechnology Information. PubChem BioAssay Database; Assay Identifier (AID) = 651768, https://pubchem.ncbi.nlm.nih.gov/bioassay/651768). […] To verify the active compounds, approximately 600 hit molecules were retested in a confirmatory screen also found on PubChem (National Center for Biotechnology Information. PubChem AID = 720497, https://pubchem.ncbi.nlm.nih.gov/bioassay/720497). Of these, a little less than four hundred compounds were confirmed as active compounds.

[2] = biological target: T1, GST-WRN500-946 helicase domain fragment; assay: Confirmatory fluorometric helicase screen, PubChem AID 720497; type: biochemical; settings: 20 nM GST-WRN500-946, 100 nM FORKF, NA = Not Active, read-out: IC50 (μM) Assay ID 720497
Experimental: as §1, §2, §3

[3] = test system: HeLa 1.2.11 cells; assay: HeLa cell proliferation assay (WST-1); type: cell-based, human; settings: 50 μM, 3-day time course
Experimental: WRN inhibitors were diluted in DMSO to a concentration 100-fold higher than their final concentrations. U2-OS cells in culture were counted, spun down and resuspended to 35,000 cells/mL in DMEM with 10% FBS and Pen/Strep antibiotic. For each cell condition, 15 μL of DMSO or inhibitor was added to 1.5 ml of U2-OS cells in DMEM or DMEM alone. One hundred μL of each cell condition was plated in triplicate on each of four 96-well plates representing days 0–3. Ten μL of WST-1 cell proliferation reagent (Roche) was added to the day 0 plate and readings were taken 2 hr later using a plate reader set to 450 nm. WST-1 cell proliferation reagent was added to plates on days 1–3 and readings were taken after 2 hr incubation. Percent cell proliferation was normalized to cells in the presence of DMSO with the background OD450 of DMEM with each drug subtracted out. […]
Fig 9 Effects of WRN helicase inhibitors on cancer cell proliferation. (A) Cell proliferation of HeLa 1.2.11 cells treated with 50 μM NCGC00029283-03, NCGC00063279-03, NCGC00357377-01 and NSC 617145 (positive control) or vehicle (DMSO) on Day 0 and Day 3 as measured using the WST-1 cell proliferation reagent. […]

[4] = test system: Hematopoietic Protein Tyrosine Phosphatase (HePTP); set-up: method as in PMID 22070201; settings: separate high-throughput screen; cited from earlier work
[5] = test system: polymerases; set-up: method as in PubChem; settings: review of PubChem data from previously-conducted screens; ref PubChem; cited from earlier work
[6] = test system: BLM helicase fragment; set-up: method as in PubChem; settings: review of PubChem data from previously-conducted screens; ref PubChem; cited from earlier work

T1 sequence (Q14191 500-946): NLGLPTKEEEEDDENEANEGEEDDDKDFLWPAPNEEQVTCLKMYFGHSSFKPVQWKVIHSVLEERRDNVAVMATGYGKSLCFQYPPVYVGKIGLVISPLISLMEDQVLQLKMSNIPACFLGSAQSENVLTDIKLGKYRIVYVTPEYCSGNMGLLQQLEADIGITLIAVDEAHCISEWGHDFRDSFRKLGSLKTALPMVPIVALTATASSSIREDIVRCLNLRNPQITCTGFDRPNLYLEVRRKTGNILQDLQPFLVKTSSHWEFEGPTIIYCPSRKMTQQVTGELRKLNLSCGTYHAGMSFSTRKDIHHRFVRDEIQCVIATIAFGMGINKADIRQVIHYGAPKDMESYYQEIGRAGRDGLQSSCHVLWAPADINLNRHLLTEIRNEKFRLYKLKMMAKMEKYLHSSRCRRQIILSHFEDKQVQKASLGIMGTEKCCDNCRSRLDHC

Cc1ccc(-c2csc(NS(=O)(=O)c3cccc(F)c3)n2)o1 [MLS002251300-02]
IC50 [1]: 31.6 µM | IC50 [2]: 24.1 µM | Effect on HeLa 1.2.11 cell proliferation [3]: did not reduce cell proliferation

COc1ccc2nc(O)c(-c3noc(-c4ccccc4)n3)cc2c1 [NCGC00063279-02]
IC50 [1]: 21.5 µM | IC50 [2]: 21.5 µM | Inhibition of HePTP [4]: inhibited | Activity against polymerases in high-throughput screens [5]: some activity | Activity against BLM helicase fragment in high-throughput screens [6]: no activity

COc1ccc2nc(O)c(-c3noc(-c4ccc(F)cc4)n3)cc2c1 [NCGC00029283-02]
IC50 [1]: 50 µM | Inhibition of HePTP [4]: inhibited | Activity against polymerases in high-throughput screens [5]: some activity | Activity against BLM helicase fragment in high-throughput screens [6]: no activity
